Experimental data from publication PMC10560666, “Four new triterpene saponins from Cephalaria speciosa and their potent cytotoxic and immunomodulatory activities” (Scientific Reports, 2023).
Marks after values point to notes of the source that are not given here.

Columns and labels:
[1] = test system: THP-1 originated-macrophage; assay: MTT cytotoxicity on THP-1 originated macrophages; assay type: cell-based, human; conditions: mean ± standard deviation, n = 3, – = Not detected
[2] = test system: CCD-34Lu normal human lung fibroblast cells; assay: MTT cytotoxicity on CCD-34Lu healthy cells; assay type: cell-based; conditions: 48 h, mean ± standard deviation, n = 3, – = Not detected
Method: (§1) The human leukemia monocyte cell line (THP-1), human lung adenocarcinoma cell line (A549), human breast cancer cells (MDA-MB231), human prostate adenocarcinoma cells (PC3), human malignant glioma cell line (U87MG), human cervical gland carcinoma cells (HeLa), human hepatocellular carcinoma cells (HEP-G2) and normal human lung fibroblast cells (CCD-34-LU) as a healthy cell line in our stock used in this study were purchased from American Type Culture Collection (ATCC). THP-1 cells were cultured in Roswell Park Memorial Institute (RPMI 1640) medium and MDA-MB231, PC3, U87 MG, HeLa, HEP-G2, and CCD-34-LU cells cultivated in Dulbecco’s Modified Eagle’s Medium/Nutrient Mixture F-12 (DMEM/F12) (Gibco, USA) medium supplemented with 10% FBS (Gibco, USA), 100U/mL of penicillin 100 µg/mL of streptomycin (Gibco, USA), and 2 mM L-glutamine (Gibco, USA).
(§2) Cytotoxicity of saponins (1–4) and their prosapogenins (2a–4a) were tested against A549, MDA-MB-231, PC-3, U87MG, HeLa, HepG-2 cancer cells and CCD34-Lu healthy cell line using MTT [3-(4,5-dimethylthiazole-2-yl)-2,5-diphenyltetrazolium bromide)] assay (Acros Organics, New Jersey, USA)[11], [23]. For this purpose, 1 × 10^5 cells/mL of all the cell lines were seeded in 96-well plates (Corning, USA) and cultivated in the at 37 °C overnight. After the incubation, the cells were incubated with different concentrations of saponins (50, 5, and 0.5 µg/mL), and doxorubicin (Sigma, USA) (20, 2, and 0.2 µg/mL) for 48 h at 37 °C. Then, the MTT was added as 20 μL (from the stock concentration of 2.5 mg/mL) to all wells and further incubated for 4 h at 37 °C. Following the incubation, the medium was removed and 150 µL DMSO was added to dissolve the formed formazan crystals. After the formazan crystals were completely dissolved, the optical density (OD) was measured at 570 nm with an UV/Vis microplate spectrophotometer (Thermo Fisher Scientific, USA). All data are the results of at least three independent experiments carried out in triplicate. Data are presented as mean ± standard error of the mean (SEM) of samples. The IC50 value was calculated using the GraphPad Prism 8 (USA) program based on the calculated percent viability values and absorbance values. The percentage of viability was determined by Eq. (1):1 %Viablecells=absorbanceoftreatedcells-absorbanceofblank/absorbanceofcontrol-absorbanceofblank×100

[3] = test system: A549 human lung adenocarcinoma cell line; assay: MTT cytotoxicity on A549; assay type: cell-based; conditions: mean ± standard deviation, n = 3, – = Not detected
Method: as §1, §2

[4] = test system: MDA-MB-231 human breast cancer cells; assay: MTT cytotoxicity on MDA-MB-231; assay type: cell-based; conditions: mean ± standard deviation, n = 3, – = Not detected
Method: as §1, §2

[5] = test system: PC-3 human prostate adenocarcinoma cells; assay: MTT cytotoxicity on PC-3; assay type: cell-based; conditions: 48 h, mean ± standard deviation, n = 3, – = Not detected
Method: as §1, §2

[6] = test system: U87MG human malignant glioma cell line; assay: MTT cytotoxicity on U87MG; assay type: cell-based; conditions: 48 h, mean ± standard deviation, n = 3, – = Not detected
Method: as §1, §2

[7] = test system: HeLa human cervical gland carcinoma cells; assay: MTT cytotoxicity on HeLa; assay type: cell-based; conditions: 48 h, mean ± standard deviation, n = 3, – = Not detected
Method: as §1, §2

[8] = test system: HepG-2 human hepatocellular carcinoma cells; assay: MTT cytotoxicity on HepG-2; assay type: cell-based; conditions: mean ± standard deviation, n = 3, – = Not detected
Method: as §1, §2

[9] = test system: THP-1 derived macrophage cells; assay: Macrophage polarization by flow cytometry (CD11b, CD80, CD163 MFI); assay type: cell-based, human; conditions: saponin 3 µg/mL, 24 h, PMA-differentiated THP-1, mean ± SD, n = 3
Method: To differentiate THP-1 cells into M0-THP-1, cells were seeded at an initial concentration of 1 × 10^6 cells/mL in 6-well plates (Corning, USA) and treated with 15 ng/mL phorbol 12-myristate 13—acetate (PMA, Sigma USA). Then incubate at 5% CO2, 37 °C for 48 h[24]. To evaluate the potential of saponins with/without infectious bronchitis virus (IBV) D274 antigen on macrophage polarization, THP-1 cells were treated with saponins at 3 µg/mL and then incubated for 24 h with or without 4 µL of inactivated IBV D274 antigens (final titer of 1 HA). […] Based on the results of our previous research, the saponin concentration was selected as a non-cytotoxic concentration. At the end of the incubation period, the cells were collected by trypsinization and washed three times with PBS. Following, 1 µL of PE anti-human CD80 (Biolegend, CA), FITC anti-human CD163 (Biolegend, CA), and FITC anti-human CD11b (Biolegend, CA) antibodies were added into the cells pellet and incubated for 45 min at room temperature in the dark. The cells pellets underwent two PBS washes following incubation. Finally, the cells were subsequently analyzed by flow cytometry (BD Accuri, C5). 1 × 10^4 cells were counted for each sample group using flow cytometry. All data are the results of at least three independent experiments carried out in triplicate. Data are presented as mean ± standard error of the mean (SEM) of samples. The untreated stained macrophage cells with anti-human CD80, FITC anti-human CD163, and FITC anti-human CD11b were compared with the results of treated cells to obtain from M0 polarization to M1 and M2 or both.
Figure 2 (a) Saponins without antigen treatment, (b) Saponins treated with antigen. THP-1 cells were treated with 15 ng/ml PMA and 3 µg/ml saponins and 1 HA titer of IBV D274 induced in the saponins with antigen group for 24 h incubation. The macrophage polarization was determined with flow cytometry. Each value represents the mean ± standard deviation of three independents measurements. (P < 0.05*, P < 0.01**, P < 0.001***).

[10] = with inactivated IBV D274 antigen (1 HA)

Row | Structure (SMILES) | IC50 ([1]; Homo sapiens, THP-1, 48 h) [µM] | IC50 ([2]; Homo sapiens, Fibroblast) [µM] | IC50 ([3]; Homo sapiens, A549, 48 h) [µM] | IC50 ([4]; Homo sapiens, MDA-MB-231, 48 h) [µM] | IC50 ([5]; Homo sapiens) [µM] | IC50 ([6]; Homo sapiens, U-87 MG) [µM] | IC50 ([7]; Homo sapiens, HeLa) [µM] | IC50 ([8]; Homo sapiens, HepG2, 48 h) [µM] | MFI of CD 11b (M0 marker) [9, 10] | MFI of CD80 (M1 marker) [9, 10] | MFI of CD163 (M2 marker) [9, 10] | MFI of CD 11b (M0 marker) ([9]; without antigen) | MFI of CD80 (M1 marker) ([9]; without antigen) | MFI of CD163 (M2 marker) ([9]; without antigen) | further results
1 | C[C@@H]1O[C@@H](O[C@H]2[C@H](O[C@H]3CC[C@@]4(C)C(CC[C@]5(C)C4CC=C4C6CC(C)(C)CC[C@]6(C(=O)O[C@@H]6O[C@H](CO[C@@H]7O[C@H](CO)[C@@H](O)[C@H](O)[C@H]7O)[C@@H](O)[C@H](O)[C@H]6O)CC[C@]45C)C3(C)C)O[C@H](CO)[C@H](O)[C@@H]2O)[C@H](O)[C@H](O)[C@H]1O (stereo partly drawn) [Compound 2, 3-O-α-L-rhamnopyranosyl-(1 → 2)-β-D-galactopyranosyl-oleanoic acid-28-O-β-D-glucopyranosyl-(1 → 6)-β-D-glucopyranosyl ester] | > 45.9 | > 45.9 | > 45.9 | > 45.9 | > 45.9 | > 45.9 | > 45.9 | > 45.9 | 33,053.20 ± 951.60 | 4516.00 ± 223.23 | 7441.00 ± 423.23 | 29,875.39 ± 3311.75 | 3,629.71 ± 142.80 | 6,206.45 ± 185.19 | –
2 | C[C@@H]1O[C@@H](O[C@H]2[C@H](O[C@H]3CC[C@@]4(C)[C@@H](CC[C@]5(C)[C@@H]4CC=C4[C@@H]6CC(C)(C)CC[C@]6(C(=O)O)CC[C@]45C)[C@]3(C)CO)O[C@H](CO)[C@H](O)[C@@H]2O)[C@H](O)[C@H](O)[C@H]1O [Compound 4a, 3-O-α-L-rhamopyranosyl-(1 → 2)-β-D-galactopyranosyl hederagenin] | – | – | – | – | – | – | – | – | 30,124.70 ± 913.74 | 4604.40 ± 128.49 | – | 30,031.76 ± 1486.58 | 4,552.00 ± 947.76 | – | IC50 ([1]; 48 h): 35.7 ± 4.9 µM; IC50 [2]: > 64 µM; IC50 ([3]; 48 h): 8.13 ± 0.01 µM; IC50 ([4]; 48 h): 8.43 ± 0.15 µM; IC50 [5]: > 64 µM; IC50 [6]: > 64 µM; IC50 [7]: 16.3 ± 4.75 µM; IC50 ([8]; 48 h): > 64 µM
3 | C[C@@H]1O[C@@H](O[C@H]2[C@H](O[C@H]3CC[C@@]4(C)C(CC[C@]5(C)C4CC=C4C6CC(C)(C)CC[C@]6(C(=O)O)CC[C@]45C)C3(C)C)O[C@H](CO)[C@H](O)[C@@H]2O)[C@H](O)[C@H](O)[C@H]1O (stereo partly drawn) [Compound 2a, 3-O-α-L-rhamopyranosyl-(1 → 2)-β-D-galactopyranosyl oleanoic acid] | 37.3 ± 8.17 | > 65.4 | 20.8 ± 0.46 | 24.3 ± 2.65 | > 65.4 | > 65.4 | > 65.4 | > 65.4 | 28,297.32 ± 808.92 | 4727.00 ± 221.96 | 7408.64 ± 224.16 | 26,304.81 ± 2370.42 | 3,962.53 ± 246.09 | – | –
4 | COc1cccc2c1C(=O)c1c(O)c3c(c(O)c1C2=O)C[C@@](O)(C(=O)CO)C[C@@H]3O[C@H]1C[C@H](N)[C@H](O)[C@H](C)O1 [Doxorubicin, doxorubicin, reference compound] | 6.84 ± 0.18 | 33.98 ± 0.02 | 40.01 ± 0.02 | 70 ± 0.02 | 4.23 ± 0.02 | 11.09 ± 0.02 | 23.95 ± 0.02 | 36.85 ± 0.02 | – | – | – | – | – | – | –
5 | C[C@@H]1O[C@@H](O[C@H]2[C@H](O[C@H]3CC[C@@]4(C)C(CC[C@]5(C)C4CC=C4C6CC(C)(C)CC[C@]6(C(=O)O)CC[C@]45C)[C@]3(C)CO)OC[C@@H](O)[C@@H]2O)[C@H](O)[C@H](O)[C@H]1O (stereo partly drawn) [Compound 3a, 3-O-α-L-rhamopyranosyl-(1 → 2)-β-D-xylopyranosyl hederagenin] | > 66.6 | > 66.6 | > 66.6 | > 66.6 | > 66.6 | > 66.6 | > 66.6 | > 66.6 | 29,092.45 ± 852.78 | 4911.00 ± 224.16 | – | 29,092.75 ± 2580.19 | 4,248.00 ± 137.13 | 6,408.00 ± 195.24* | IC50, THP-1 originated-macrophage ([1]; 48 h): did not have a cytotoxic effect
6 | C[C@@H]1O[C@@H](O[C@H]2[C@H](O[C@H]3CC[C@@]4(C)C(CC[C@]5(C)C4CC=C4C6CC(C)(C)CC[C@]6(C(=O)O[C@@H]6O[C@H](CO[C@@H]7O[C@H](CO)[C@@H](O)[C@H](O)[C@H]7O)[C@@H](O)[C@H](O)[C@H]6O)CC[C@]45C)[C@]3(C)CO)OC[C@@H](O)[C@@H]2O)[C@H](O)[C@H](O)[C@H]1O (stereo partly drawn) [Compound 3, 3-O-α-L-rhamnopyranosyl-(1 → 2)-β-D-xylopyranosyl-hederagenin-28-O-β-D-glucopyranosyl-(1 → 6)-β-D-glucopyranosyl ester] | > 46.5 | > 46.5 | > 46.5 | > 46.5 | > 46.5 | > 46.5 | > 46.5 | > 46.5 | 29,545.10 ± 906.36 | 4564.51 ± 138.81 | 8303.34 ± 245.1** | 28,092.69 ± 1435.47 | 4,549.73 ± 913.74 | 6,655.82 ± 206.67* | –
